Reference: article PMC5946847, “Synthesis and biological evaluation of aryl-oxadiazoles as inhibitors of Mycobacterium tuberculosis” (Bioorganic & Medicinal Chemistry Letters, 2018)
In brackets after ≈: the same amount, converted by molar mass. Where two headings read alike, the source gives them in different places.

How the values were obtained:
[1] = physchem; conditions: pH 7.4
[2] = Mouse microsomal stability; type: in vitro ADME; conditions: for Mouse microsome (% metabolized in 30 min): 2 μM
Procedure: 4. Method for microsomal stability:
To determine microsomal turnover, test compounds were incubated (2 μM) with liver microsomes in the presence of NADPH, and loss of parent molecule was measured by LC-MS after 30 min.

[3] = tested on: M. tuberculosis H37Rv expressing DsRed; experiment: microbe, parasite or virus in culture; type: cell-based; conditions: Mycobacterium tuberculosis, average ± standard deviation for at least 2 runs, read-out: 7H9-Ty-BT MIC
[4] = tested on: M. tuberculosis H37Rv expressing DsRed; experiment: microbe, parasite or virus in culture; type: cell-based; conditions: Mycobacterium tuberculosis, read-out: 7H9-Tw-OADC MIC
[5] = tested on: Vero cells (ATCC CCL81); experiment: Cytotoxicity in Vero cells (CellTiter-Glo); type: cell-based; conditions: Chlorocebus sabaeus, 48 h, 2 days
Procedure: Vero cells (ATCC® CCL81) were grown in DMEM, high glucose, GlutaMAX™ (Invitrogen), 10% FBS, 50 units/mL penicillin, and 50 µg/mL streptomycin, seeded as 1200 cells per well in 384-well plates and incubated for 24 h at 37 °C with 5% CO2. Compounds were added as a 3-fold serial dilution series and cells incubated for 2 days at 37 °C with 5% CO2. Viability was measured using CellTiter-Glo® Reagent (Promega).

Row | SMILES | solubility [1] | CLint scaled at 2 μM ([2]; mouse, microsomes) | Mouse microsome (% metabolized in 30 min) ([2]; mouse, microsomes, 0.5 h) | Mouse microsome (% metabolized in 30 min) ([2]; NADPH, 30 min) | CLint scaled at 2 μM ([2]; mouse, microsomes, Table 1, read-out: Mouse microsome unbound intrinsic clearance) | MIC [3] | MIC [4] | IC50 [5]
1 | c1coc(-c2nnc(SCc3cccc4ccccc34)o2)c1 [Compound 4] | < 1 µg/mL | 1680 mL/min/kg | 95% | – | – | – | – | –
2 | c1csc(-c2nnc(COc3ccc4c(c3)OCO4)o2)c1 [Compound 5] | – | – | – | 76% | 332 mL/min/kg | – | – | –
3 | c1coc(-c2nnc(Cc3cccc4ccccc34)o2)c1 [Compound 6] | < 1 µg/mL | – | 100% | – | – | 1.1 ± 0.9 µM (≈ 0.304 µg/mL) | > 20 µM | > 100 µM
4 | c1csc(-c2nnc(Cc3ccc4ccccc4c3)o2)c1 [Compound 7] | < 1 µg/mL | – | 100% | – | – | 5.7 ± 0.2 µM (≈ 1.67 µg/mL) | > 20 µM | > 100 µM
5 | c1csc(-c2nnc(Cc3cccc4c3OCCO4)o2)c1 [Compound 8] | 77 µg/mL (≈ 256 µM) | – | 99% | – | – | 0.8 ± 0.2 µM (≈ 0.24 µg/mL) | > 20 µM | > 100 µM
6 | c1ccc(Cc2nnc(-c3cccs3)o2)cc1 [Compound 9] | 31 µg/mL (≈ 128 µM) | – | 99% | – | – | 1.1 ± 0.2 µM (≈ 0.267 µg/mL) | > 20 µM | 79 µM
7 | CN(Cc1nnc(-c2ccco2)s1)Cc1c(F)cccc1Cl [Compound 10] | 20 µg/mL (≈ 59.2 µM) | – | 99% | – | – | 3.2 ± 0.5 µM (≈ 1.08 µg/mL) | > 20 µM | 75 µM
8 | CN(Cc1nnc(-c2cccs2)o1)Cc1c(F)cccc1Cl [Compound 11] | 120 µg/mL (≈ 355 µM) | – | 100% | – | – | 0.6 ± 0.2 µM (≈ 0.203 µg/mL) | > 20 µM | > 100 µM
9 | CN(Cc1nnc(-c2ccccc2)o1)Cc1c(F)cccc1Cl [Compound 12] | 78 µg/mL (≈ 235 µM) | – | 100% | – | – | 0.4 ± 0.2 µM (≈ 0.133 µg/mL) | > 20 µM | > 100 µM
10 | CN(Cc1ccccc1)Cc1nnc(-c2cccs2)o1 [Compound 13] | 420 µg/mL (≈ 1470 µM) | – | 98% | – | – | 0.5 ± 0.1 µM (≈ 0.143 µg/mL) | > 20 µM | > 100 µM
11 | CN(Cc1ccccc1)Cc1nnc(-c2ccco2)o1 [Compound 14] | 400 µg/mL (≈ 1490 µM) | – | 95% | – | – | 0.6 ± 0.2 µM (≈ 0.162 µg/mL) | > 20 µM | > 100 µM
12 | CN(Cc1nnc(-c2ccco2)o1)Cc1ccccc1Cl [Compound 15] | 270 µg/mL (≈ 889 µM) | – | 100% | – | – | 0.6 ± 0.2 µM (≈ 0.182 µg/mL) | > 20 µM | 98 µM
13 | CN(Cc1ccc(F)cc1)Cc1nnc(-c2ccccc2)o1 [Compound 16] | – | – | – | – | – | 0.9 ± 0.03 µM (≈ 0.268 µg/mL) | > 20 µM | 97 µM
14 | CN(Cc1ccc(C(F)(F)F)cc1)Cc1nnc(-c2cccs2)o1 [Compound 17] | 22 µg/mL (≈ 62.3 µM) | – | 98% | – | – | 6.8 ± 2.4 µM (≈ 2.4 µg/mL) | > 20 µM | 87 µM
15 | CN(Cc1ccc(C(F)(F)F)cc1)Cc1nnc(-c2ccccc2)o1 [Compound 18] | 9 µg/mL (≈ 25.9 µM) | – | 99% | – | – | 10.8 ± 3.3 µM (≈ 3.75 µg/mL) | > 20 µM | 80 µM
16 | CN(Cc1nnc(-c2ccco2)o1)CC1CCCCC1 [Compound 19] | 41 µg/mL (≈ 149 µM) | – | 100% | – | – | 0.7 ± 0.5 µM (≈ 0.193 µg/mL) | > 20 µM | 90 µM
17 | Fc1cccc(Cl)c1CNCc1nnc(-c2ccco2)o1 [Compound 20] | 180 µg/mL (≈ 585 µM) | – | 99% | – | – | 5.5 ± 0.4 µM (≈ 1.69 µg/mL) | > 20 µM | > 100 µM

Row | SMILES | solubility [1] | CLint scaled at 2 μM ([2]; mouse, microsomes) | Mouse microsome (% metabolized in 30 min) ([2]; mouse, microsomes, 0.5 h) | Mouse microsome (% metabolized in 30 min) ([2]; NADPH, 30 min) | CLint scaled at 2 μM ([2]; mouse, microsomes, Table 1, read-out: Mouse microsome unbound intrinsic clearance) | MIC [3] | MIC [4] | IC50 [5]
18 | Fc1cccc(Cl)c1COCc1nnc(-c2ccco2)o1 [Compound 21] | 150 µg/mL (≈ 486 µM) | – | 100% | – | – | 6 ± 0.4 µM (≈ 1.85 µg/mL) | > 20 µM | > 100 µM
19 | CN(Cc1nnc(-c2ccco2)o1)C(=O)c1c(F)cccc1Cl [Compound 22] | 640 µg/mL (≈ 1910 µM) | – | 95% | – | – | > 20 µM | > 20 µM | > 100 µM
20 | CN(CCc1c(F)cccc1Cl)c1nnc(-c2ccco2)o1 [Compound 23] | 7 µg/mL (≈ 21.8 µM) | – | 99% | – | – | 4 ± 0.6 µM (≈ 1.29 µg/mL) | > 20 µM | 93 µM
21 | c1csc(-c2nnc(CN3CCCc4ccccc43)o2)c1 [Compound 24] | 5 µg/mL (≈ 16.8 µM) | – | 97% | – | – | 0.8 ± 0.5 µM (≈ 0.238 µg/mL) | > 20 µM | > 100 µM
22 | c1ccc(-c2nnc(CN3CCCc4ccccc43)o2)cc1 [Compound 25] | 3 µg/mL (≈ 10.3 µM) | – | 100% | – | – | 1.7 ± 0.1 µM (≈ 0.495 µg/mL) | > 20 µM | > 100 µM
23 | Fc1ccc(-c2nnc(CN3CCCc4ccccc43)o2)cc1 [Compound 26] | < 2 µg/mL | – | 100% | – | – | 0.2 ± 0.1 µM (≈ 0.0619 µg/mL) | > 20 µM | > 100 µM
24 | FC(F)(F)c1ccc(-c2nnc(CN3CCCc4ccccc43)o2)cc1 [Compound 27] | < 2 µg/mL | – | 87% | – | – | 0.7 ± 0.3 µM (≈ 0.252 µg/mL) | > 20 µM | > 100 µM
25 | c1csc(-c2nnc(CN3CCc4ccccc4C3)o2)c1 [Compound 28] | 54 µg/mL (≈ 182 µM) | – | 99% | – | – | 3.7 ± 0.3 µM (≈ 1.1 µg/mL) | > 20 µM | > 100 µM
26 | c1ccc(-c2nnc(CN3CCc4ccccc4C3)o2)cc1 [Compound 29] | 51 µg/mL (≈ 175 µM) | – | 99% | – | – | 7.7 ± 0.8 µM (≈ 2.24 µg/mL) | > 20 µM | > 100 µM
27 | Fc1ccc(-c2nnc(CN3CCc4ccccc4C3)o2)cc1 [Compound 30] | 40 µg/mL (≈ 129 µM) | – | 80% | – | – | 4.7 ± 1.3 µM (≈ 1.45 µg/mL) | > 20 µM | > 100 µM
28 | FC(F)(F)c1ccc(-c2nnc(CN3CCc4ccccc4C3)o2)cc1 [Compound 31] | < 2 µg/mL | – | – | – | – | > 20 µM | > 20 µM | > 100 µM
29 | c1csc(-c2nnc(CN3CCOc4ccccc43)o2)c1 [Compound 32] | 33 µg/mL (≈ 110 µM) | – | 99% | – | – | 1.8 ± 0.6 µM (≈ 0.539 µg/mL) | > 20 µM | > 100 µM
30 | c1ccc(-c2nnc(CN3CCOc4ccccc43)o2)cc1 [Compound 33] | 28 µg/mL (≈ 95.5 µM) | – | 99% | – | – | 2.8 ± 1.7 µM (≈ 0.821 µg/mL) | > 20 µM | > 100 µM
31 | Fc1ccc(-c2nnc(CN3CCOc4ccccc43)o2)cc1 [Compound 34] | < 2 µg/mL | – | 98% | – | – | 1.8 ± 0.4 µM (≈ 0.56 µg/mL) | > 20 µM | > 100 µM
32 | FC(F)(F)c1ccc(-c2nnc(CN3CCOc4ccccc43)o2)cc1 [Compound 35] | < 2 µg/mL | – | 95% | – | – | 8.3 ± 1.7 µM (≈ 3 µg/mL) | > 20 µM | 85 µM
33 | c1csc(-c2nnc(CN3CCc4ccccc43)o2)c1 [Compound 36] | 38 µg/mL (≈ 134 µM) | – | 99% | – | – | 2.1 ± 0.1 µM (≈ 0.595 µg/mL) | > 20 µM | > 100 µM
34 | c1ccc(-c2nnc(CN3CCc4ccccc43)o2)cc1 [Compound 37] | 21 µg/mL (≈ 75.7 µM) | – | 99% | – | – | 2.3 ± 0.9 µM (≈ 0.638 µg/mL) | > 20 µM | > 100 µM
